From article PMC5538713, “RORγt and RORα signature genes in human Th17 cells” (PLoS ONE, 2017)

What was measured:
[1] = tested on: Aa1; assay: Cerep selectivity panel; type: binding
[2] = biological target: T1, human RORγt LBD (Homo sapiens, UniProt P51449); assay: RORγt cellular reporter assay (GAL4-RORγt LBD luciferase, HEK293T); type: cell-based; settings: 24 hours, read-out: RORγ/γt Cellular Reporter Assay (IC50)
T1 construct: expressed in transfected cells; host or cells: HEK293T
Protocol: Media was removed and cells were lysed with 50 μL 1x Glo Lysis Buffer (Promega). […] To calculate the effect of compounds on RORγt activity, the ratio of firefly to renilla luciferase was determined and plotted against compound concentration. Agonist compounds increase RORγt-driven luciferase expression, and antagonist or inverse agonist compounds decrease luciferase expression. IC50 values were determined using Graphpad Prism.

[3] = biological target: T2, RORγ/γt LBD (Homo sapiens, UniProt P51449); assay: ThermoFluor binding assay, RORγ/γt LBD; settings: recombinant human LBD; read-out: ThermoFlour Binding Assay (Kd, nM) RORγ/γt
T2 construct: made in house; host or cells: E. coli BL21DE3 GOLD, pET24a
Protocol: Recombinant human RORγ, RORα and RORβ LBD proteins were prepared for ThermoFlour binding assay. […] All recombinant proteins contained an additional amino acid sequence of [sequence] at the N-terminal of LBD. After transformation of the bacteria strain BL21DE3 GOLD (Agilent) with the plasmids, 10 to 20 L cultures were grown to 1 OD and recombinant protein expression was induced overnight at 16°C with 0.2mM isopropyl-beta-D-thiogalactopyranoside (IPTG) (Corning). […] His-tagged proteins were collected with Ni-NTA resin (Qiagen) and purified with a HiTrap Q HP column (GE Life Sciences) eluted with a 40 CV gradient of 50-500mM NaCl.
The ThermoFluor® assay was established to measure the change in protein stability upon binding with compounds. 1-Anilinonaphthalene-8-Sulfonic Acid (1,8-ANS) (Invitrogen) was used as a fluorescent dye to label the test proteins. […] Assay plates were robotically loaded onto a thermostatically controlled PCR-type thermal block and then heated at a ramp-rate of 1°C/min. Fluorescence emission was initiated by continuous illumination with UV light (LC6, Hamamatsu) via fiber optic with a band-pass filter (380–400 nm) and detected with a CCD camera (Sensys, Roper Scientific) filtered to detect signal of 500 ± 25 nm. […]

[4] = tested on: RORγt transcripts; assay: RT-PCR of RORγt transcripts in human CD4 T cells during Th17 differentiation; type: cell-based; settings: 0.1 and 0.5 μM, throughout the time course (2 hours to 6 days)
Protocol: Human CD4 T cells from 2 healthy donors were used in studies. 5.0 × 10^6 human CD4 T cells were used per sample and cell samples were collected at 0, 24 and 48 hours of Th17 differentiation for gene expression studies with RNA-Seq and RT-PCR.
Expression of RORα, RORγt and IL-17A genes in siRNA or compound treated human Th17 cells was measured by quantitative RT-PCR using the TaqMan RNA-to-Ct 1 step kit (Applied Biosystems) following the manufacturer’s instructions. […] Real time PCR was performed using 600ng total RNA as template in the ABI PRISM 7500 Sequence Detection System (Applied Biosystems), with reaction starting at 48°C for 15 minutes, then 10 minutes at 95°C, followed by 40 cycles of 15 seconds at 95°C and 1 minute at 60°C.
PCR results were analyzed with the ddCT algorithm [34] to generate data on relative quantitation and changes in gene expression.

[5] = tested on: IL-17A transcripts; assay: RT-PCR of IL-17A transcripts in human CD4 T cells during Th17 differentiation; type: cell-based; settings: 0.5 μM compound
Protocol: Human CD4 T cells from 2 healthy donors were used in studies. […]
For compound treatment, CD4 T cells were pre-treated with compounds or DMSO vehicle control at 37°C for 1 hour before T cell activation.
For siRNA treatment, three RORγt siRNAs, two RORα siRNAs, two control siRNAs were tested at 1 μM, and mock transfected samples were included as controls (S1 Table). siRNA treatment was performed by Amaxa electroporation of human CD4 T cells with siRNAs. Human CD4 T cells were taken up in 100 μL Nucleofector solution (P3 primary cell 4D Nucleofector Kit, reference V4XP-3024, Amaxa Biosciences) at 5.0 × 10^6 cells/100 μL. Cell suspensions were transfected with siRNA by electroporation using the FI-115 program in the Amaxa 4D-Nucleofector. T cells after electroporation were rinsed with 500 μL culture medium, transferred to 24-well culture plates and kept at 37°C cell incubator before use in T cell assays. It was noticed that Amaxa electroporation caused an increased expression of some genes in human T cells and this elevated gene expression lasted up to 8 hours after electroporation. To avoid gene expression study interfered by electroporation, human CD4 T cells were rested in culture medium at 37°C for 8 hours after siRNA electroporation before the use of these cells to initiate Th17 differentiation for transcriptome profile.
T cells after compound or siRNA treatments were stimulated with anti-CD3/anti-CD28 coated beads (Miltenyi Biotech) at 2:1 bead to cell ratio in culture medium containing 10 ng/ml IL1β (R&D), 10 ng/ml IL23 (R&D), 30 ng/ml TGFβ1 (R&D), 10 μg/ml of anti-IL4 and anti-IFNγ (eBioscience). T cell cultures were collected at different time points for RNA extraction and gene expression studies.
Expression of RORα, RORγt and IL-17A genes in siRNA or compound treated human Th17 cells was measured by quantitative RT-PCR using the TaqMan RNA-to-Ct 1 step kit (Applied Biosystems) following the manufacturer’s instructions. […]
PCR results were analyzed with the ddCT algorithm to generate data on relative quantitation and changes in gene expression.

T1 sequence (P51449 269-508 limits assumed): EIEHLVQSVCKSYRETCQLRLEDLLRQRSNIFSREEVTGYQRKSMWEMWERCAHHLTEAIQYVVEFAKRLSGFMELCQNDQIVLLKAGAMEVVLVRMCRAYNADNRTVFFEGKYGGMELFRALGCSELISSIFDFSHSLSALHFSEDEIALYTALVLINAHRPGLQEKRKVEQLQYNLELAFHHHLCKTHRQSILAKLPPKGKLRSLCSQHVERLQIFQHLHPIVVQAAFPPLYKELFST
T2 sequence (P51449 258-518): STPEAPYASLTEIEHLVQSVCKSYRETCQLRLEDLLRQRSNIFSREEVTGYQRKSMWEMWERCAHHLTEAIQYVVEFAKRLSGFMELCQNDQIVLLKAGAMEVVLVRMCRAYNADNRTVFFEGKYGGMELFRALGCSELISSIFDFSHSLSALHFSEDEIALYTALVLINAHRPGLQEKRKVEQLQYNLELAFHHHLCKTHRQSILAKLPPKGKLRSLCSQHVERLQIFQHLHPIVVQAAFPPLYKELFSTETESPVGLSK

## COc1nc2ccc([C@@](O)(c3ccc(C)nc3C)c3cnnn3C)cc2c(Cl)c1Cc1ccc(C(F)(F)F)cc1 [compound A]
[1]; 1 µM
  % Inhibition at 1µM: 8%
[1]; 10 µM
  % Inhibition at 10µM: 5%

## COc1nc2ccc([C@@](O)(c3ccccc3)C3CCN(C(C)=O)CC3)cc2c(Cl)c1Cc1ccc(-n2cccn2)cc1 [C]
[2]
  IC50: 28.9 nM
[3]
  Kd: 4.4 nM

## CN(C)c1nc2ccc(C(O)(c3ccncc3)c3cncn3C)cc2c(Cl)c1-c1ccccc1 (centres unmarked) [compound D]
[4]
  effect on RORγt expression in T cells: did not affect
[5]; 24 hours
  reduction of IL-17A transcripts: 79%
[5]; 72 hours
  reduction of IL-17A transcripts: 73%
[5]; day 6
  decrease of IL-17A transcripts: 67%
